Data from patent EP3572468B1, “CYANINE DYES AND THEIR USAGE FOR IN VIVO STAINING OF MICROORGANISMS” (PHILIPPS-UNIVERSITÄT MARBURG, priority 2018, dated 2019).

What was measured:
[1] = system: dsDNACT; assay: Thermal melting analysis of dsDNACT; format: binding, calf
Procedure: Thermal melting analysis was performed on a Jasco J-810 spectropolarimeter equipped with a Jasco CDF-426S peliter controller and a Thermo Haake WKL 26 water recirculator. It was measured at a concentration of 45 µM of dsDNACT with and without 1.8 µM of 6-TramTO-3 in 10 mM Tris pH 7.5. The measurement was performed at 260 nm, with a response of 2 s, a band width of 10 nm, from 40-95°C, a slope of 2°C/min. Three independent measurements were recorded and the intensity normalized.

[2] = system: primary human macrophages; assay: Uptake of 6-TramTO-3-labeled bacteria by macrophages (co-culture, FACS); format: cell-based; conditions: multiplicity of infection of 20
Procedure: For primary human macrophage cultures buffy coats from blood donations were loaded onto Lymphoprep™ gradient medium (Fresenius Kabi) followed by centrifugation. The peripheral blood mononuclear cell band was isolated from the gradient and monocytes were enriched using CD14 MACS beads (Miltenyi) according to the manufacturer's instructions. To differentiate monocytes into macrophages cells were cultured in 6-well plates (800.000 cells/mL) in 2 mL X-Vivo 15 medium (Lonza) supplemented with 5 % fetal bovine serum (Biochrom) and 15 ng/mL recombinant human GM-CSF (Preprotech). On day 7 macrophages were considered terminally differentiated and treated with stained bacteria. To this end bacteria stained as described above were sampled at an OD600 nm = 2.0 and washed five times with phosphate buffered saline (PBS). After the last wash bacteria were brought to an OD600 nm of 2.0 and 16 µL, equivalent to 16.000.000 bacteria were added to each well to achieve a multiplicity of infection of 20. Culture plates were then centrifuged for 10 min at 250 G and 37°C to establish physical contact between macrophages and bacteria. Subsequently, culture plates were transferred back into a 37°C incubator with CO2 atmosphere for the remainder of the stimulation period.
Bacteria and macrophages were washed with PBS prior to flow cytometry and analysed using a Guava easyCyte flow cytometer (Millipore). FCS3.0 files were analysed using Flowing Software (http://flowingsoftware.btk.fi/). Cells were first gated in the forward- / side-scatter plot to exclude debries, followed by quadrant gating in plots using the fluorescence channels as shown above. For discrimination of live/dead cell discrimination cells in PBS were supplemented with 0.4 µL/mL propidium-iodide (5 mg/ml solution) followed by 5 min incubation on ice. Propidium iodide signal was recorded in the yellow channel.

`CC[n+]1ccc(/C=C/C=C2\Sc3ccccc3N2CCCCCCn2cc(CN)nn2)c2ccccc21.[I-]` [6-TramTO-3, 4-((1E,3Z)-3-(3-(6-(4-(aminomethyl)-1H-1,2,3-triazol-1-yl)hexyl)benzo[d]thiazol-2(3H)-ylidene)prop-1-en-1-yl)-1-ethylquinolin-1-ium iodide] was tested, and the “melting point of dsDNACT with addition of dye” value ([1]; 45 µM dsDNACT with 1.8 µM dye in 10 mM Tris pH 7.5, dsDNACT alone 68.12°C) was 72.66 °C, the ΔTm ([1]; dsDNACT stabilization upon dye binding, 45 µM dsDNACT, 1.8 µM dye, 10 mM Tris pH 7.5) was 5 °C and the “red-shift of the macrophages (bacterial uptake)” value ([2]; macrophages exposed to 6-TramTO-3-labeled E. coli) was ~ 26%. For the same compound, the “macrophages that took up bacteria (red-shifted)” value ([2]; macrophages exposed to 6-TramTO-3-labeled antibiotic sensitive Klebsiella strain) was ~ 0.2% and the “macrophages that took up bacteria (red-shifted)” value ([2]; macrophages exposed to 6-TramTO-3-labeled antibiotic-resistant Klebsiella strain) was ~ 4%.
